Data reported in patent EP4818187A1, “COMPOUND AND USE THEREOF” (Ganzhou Hemay Pharmaceutical, Co., Ltd, priority 2023, dated 2025).

Legend:
[1] = test system: HCT116 (human colorectal cancer); assay: In vitro inhibitory effect against human tumor cells (MTT); type: cell-based; conditions: HCT-116, 72 h, 3 days
Protocol: (§1) Cells were cultured with 5% CO2 at 37°C and saturated humidity until they reached a logarithmic growth phase (usually adherent cells were nearly fully confluent). After removing adherent cells by trypsin/EDTA digestion, the cells were collected for subsequent experiments.
(§2) The cells were inoculated into a 96-well cell culture plate (hereinafter referred to as the 96-well plate) based on the cell count shown in Table 2, cultured overnight to achieve cell adherence, and then, after different concentrations of the test compound were added, further cultured for a total of 3 days. Finally, the total cell protein in the assay wells was assayed by SRB, or the cell viability was assessed by MTT:
(§3) 2.2 Assaying cell viability by MTT: the modification is based on the method in the literature (J. Carmichael, W. DeGraff, A. Gazdar et al., Evaluation of a tetrazolium-based semiautomated colorimetric assay: assessment of chemosensitivity testing. Cancer Research. 1987, 47: 936-942). Specific method: For well-adherent cells: the medium was pipetted out, 100 µL of a basal medium containing 0.5 mg/mL MTT (medium free of fetal bovine serum (FBS) and other additives) was added to each well, and culture was continued for additional 3 h. The MTT-containing basal medium was pipetted out, and 100 µL of DMSO was added to each well to dissolve formazan, followed by assay at a wavelength of 490 nm.
(§4) For poorly-adherent cells: MTT solution was directly added to a concentration of 0.5 mg/mL, culture was continued for additional 3 h, and an equal volume of triple solvent was added to the system to dissolve formazan, followed by assay at a wavelength of 570 nm.
(§5) 2.3: 1-2 mg of β-glucuronidase was weighed, and dissolved in PBS to prepare 2 mg/mL stock solution. Prior to use, the stock solution was diluted with a complete medium to prepare 12.5 µg/mL enzyme working solution. For assay wells requiring the enzyme, 80 µL of the enzyme working solution was added, with the β-glucuronidase at a concentration of 1 µg/well; and for assay wells not requiring the enzyme, 80 µL of the complete medium was added.
(§6) 1-3 mg of the test compound was weighed, and dissolved in DMSO to prepare 20 mM stock solution. The stock solution was diluted in a 3-fold gradient with DMSO, then diluted 100-fold with RPMI1640 basal medium to obtain 10× working solutions, with a total of 8 concentrations. 20 µL of the 10× working solutions were add to the assay wells, with the final volume of each well of 200 µL, and with the DMSO at a concentration of 0.1%.
(§7) 2.4 Calculation of inhibitory activity of compound: the experiment includes a compound test group, a compound-free positive solvent control group (PC), and a negative solvent control group (NC) without cells and the compound. Inhibition rate = [1−(testvalue−NCmean)/(PCmean−NCmean)] × 100% [formula]
(§8) The mean and SD of the inhibition rate were obtained from replicate assay wells. A curve was plotted with the compound concentrations distributed in a logarithmic form as the abscissa and with the mean inhibition rates as the ordinate, and was fitted with a 4-parameter logistic equation. The compound concentration corresponding to 50% inhibition rate on the curve is the IC50 value. Table 2: Culture medium formulation and cell inoculation concentration for human tumor cell lines

[2] = test system: SK-OV-3 (human ovarian cancer); assay: as above; type: cell-based; conditions: SK-OV-3, 72 h, SK-OV-3, MTT, 3 days
Protocol: as §1, §2, §3, §4, §5, §6, §7, §8

[3] = test system: Fadu (human pharyngeal squamous cell carcinoma); assay: as above; type: cell-based; conditions: 72 h, 3 days
Protocol: as §1, §2, §3, §4, §5, §6, §7, §8

[4] = test system: NCI-H1975 (human non-small cell lung cancer); assay: as above; type: cell-based; conditions: NCI-H1975, 72 h, 3 days
Protocol: as §1, §2, §3, §4, §5, §6, §7, §8

[5] = test system: human ovarian cancer SK-OV-3; assay: Biological Example 5: in vivo xenograft model of human ovarian cancer SK-OV-3; set-up: species or system Balb/c-nu nude mice; conditions: SK-OV-3 xenograft, nude mice, 0.8 mg/kg i.v. qw×3
[6] = test system: human non-small cell lung cancer NCI-H1975; assay: Biological Example 7: in vivo xenograft model of human non-small cell lung cancer NCI-H1975; set-up: species or system Balb/c-nu nude mice; conditions: nude mice; for Final body weight change (%) / Maximum body weight change (%) / Relative volume RTV (x±S.D.) / T/C (%) / Tumor inhibition rate (%) / Tumor weight (g, x±S.D.): 0.8 mg/kg i.v. qw×3; for Body weight (g, x±S.D.) End: 0.8 mg/kg i.v. qw×3, End; for Body weight (g, x±S.D.) Start: 0.8 mg/kg i.v. qw×3, Start
[7] = test system: human non-small cell lung cancer NCI-H1975; assay: Biological Example 10: in vivo xenograft model of human non-small cell lung cancer NCI-H1975; set-up: species or system Balb/c-nu nude mice; conditions: nude mice; for Final body weight change (%) / Maximum body weight change (%) / Relative volume RTV (x±S.D.) / T/C (%) / Tumor inhibition rate (%) / Tumor weight (g, x±S.D.): 0.4 mg/kg i.v. qw×2; for Body weight (g, x±S.D.) End 24d: 0.4 mg/kg i.v. qw×2, End 24d; for Body weight (g, x±S.D.) Start: 0.4 mg/kg i.v. qw×2, Start
[8] = test system: BxPC-3 (human pancreatic cancer in situ); assay: In vitro inhibitory effect against human tumor cells (MTT or SRB); type: cell-based; conditions: BXPC-3, 72 h, BxPC-3, test method printed MTT (head: SRB), 3 days
Protocol: as §1, §2
(§9) 2.1 Assaying total cell protein by SRB: the modification is based on the method in the literature (V. Vichai and K. Kirtikara. Sulforhodamine B colorimetric assay for cytotoxicity screening. Nature Protocols. 2006, 1: 1112-1116). Specific method: the culture medium was pipetted out from the wells, the cells were fixed with 10% trichloroacetic acid for more than 1 h, and trichloroacetic acid was removed; the cells were washed with H2O, and stained with 0.4% SRB for 15-30 min; after excess SRB was removed, the cells were washed with 1% acetic acid; 100 µl of 10 mM tris(trihydroxymethylaminomethane) was added to dissolve the protein-bound SRB, followed by assay at a wavelength of 570 nm.
as §3, §4, §5, §6, §7, §8

[9] = test system: 22RV1 (human prostate cancer); assay: In vitro inhibitory effect against human tumor cells (SRB); type: cell-based; conditions: 22Rv1, 72 h, 22RV1, SRB, 3 days
Protocol: as §1, §2, §9, §5, §6, §7, §8

[10] = test system: A375 (human malignant melanoma); assay: as above; type: cell-based; conditions: A-375, 72 h, 3 days
Protocol: as §1, §2, §9, §5, §6, §7, §8

[11] = test system: HepG2 (human liver cancer cell); assay: as above; type: cell-based; conditions: HepG2, 72 h, 3 days
Protocol: as §1, §2, §9, §5, §6, §7, §8

[12] = With addition of βGU (1 µg/well)

Row | Compound | IC50 [1, 12] | IC50 ([1]; βGU-free) | IC50 [2, 12] | IC50 ([2]; βGU-free) | IC50 [3, 12] | IC50 ([3]; βGU-free) | IC50 [4, 12] | IC50 ([4]; βGU-free) | Final body weight change (%) [5] | Maximum body weight change (%) [5] | Relative volume RTV (x±S.D.) [5] | T/C (%) [5] | Tumor inhibition rate (%) [5] | Tumor weight (g, x±S.D.) [5] | Body weight (g, x±S.D.) End [5] | Body weight (g, x±S.D.) Start [5] | Final body weight change (%) [6] | Maximum body weight change (%) [6] | Relative volume RTV (x±S.D.) [6] | T/C (%) [6] | also measured
1 | CC[C@H](C)[C@@H]([C@@H](CC(=O)N1CCC[C@H]1[C@H](OC)[C@@H](C)C(=O)N[C@H](C)[C@@H](O)c1ccccc1)OC)N(C)C(=O)[C@@H](NC(=O)[C@H](C(C)C)[N+](C)(C)Cc1ccc(O[C@@H]2O[C@H](C(=O)[O-])[C@@H](O)[C@H](O)[C@H]2O)cc1OCc1cn(CCOCCC(=O)Nc2ccc(-c3ccc(/N=N/c4ccc5c(S(=O)(=O)[O-])cc(S(=O)(=O)[O-])c(N)c5c4O)c(C)c3)cc2C)nn1)C(C)C.[Na+].[Na+] [Example compound 9] | 2.9 nM | 69 nM | 2.4 nM | 65 nM | 0.35 nM | 25 nM | 4.7 nM | 69 nM | 5.3% | 5.3, d21% | 0.05±0.03 | 0.4% | 99.9% | 0.002 ± 0.001 g | 25.8 ± 0.7 g | 24.5 ± 0.6 g | 8.8% | 8.8, d21% | 0.45±0.30 | 3.2% | Tumor inhibition rate (%) [6]: 97.7%; Tumor weight (g, x±S.D.) [6]: 0.041 ± 0.051 g; Body weight (g, x±S.D.) End [6]: 28.3 ± 2.9 g; Body weight (g, x±S.D.) Start [6]: 26.1 ± 2.8 g; Final body weight change (%) [7]: 4.8%; Maximum body weight change (%) [7]: 4.8, d28%; Relative volume RTV (x±S.D.) [7]: 0.38±0.05; T/C (%) [7]: 7.7%; Tumor inhibition rate (%) [7]: 93.4%; Tumor weight (g, x±S.D.) [7]: 0.073 ± 0.016 g; Body weight (g, x±S.D.) End 24d [7]: 23.5 ± 0.6 g; Body weight (g, x±S.D.) Start [7]: 22.5 ± 1.4 g; IC50 [8, 12]: 0.86 nM; IC50 ([8]; βGU-free): 28 nM; IC50 [9, 12]: 3.8 nM; IC50 ([9]; βGU-free): 86 nM; IC50 [10, 12]: 2.7 nM; IC50 ([10]; βGU-free): 27 nM; IC50 [11, 12]: 3.8 nM; IC50 ([11]; βGU-free): 88 nM
2 | CC[C@H](C)[C@@H]([C@@H](CC(=O)N1CCC[C@H]1[C@H](OC)[C@@H](C)C(=O)N[C@H](C)[C@@H](O)c1ccccc1)OC)N(C)C(=O)[C@@H](NC(=O)[C@H](C(C)C)[N+](C)(C)Cc1ccc(O[C@@H]2O[C@H](C(=O)[O-])[C@@H](O)[C@H](O)[C@H]2O)cc1OCc1cn(CCCOCC(=O)Nc2ccc(-c3ccc(/N=N/c4ccc5c(S(=O)(=O)[O-])cc(S(=O)(=O)[O-])c(N)c5c4O)c(C)c3)cc2C)nn1)C(C)C.[Na+].[Na+] [Example compound 10] | 3.4 nM | 87 nM | 2.7 nM | 74 nM | 0.64 nM | 14 nM | 1.9 nM | 50 nM | 4.3% | 4.4, d18% | 0.37±0.73 | 3.2% | 97.9% | 0.035 ± 0.077 g | 24.7 ± 0.9 g | 23.7 ± 1.1 g | 10.2% | 10.2, d21% | 0.66±0.23 | 4.6% | Tumor inhibition rate (%) [6]: 97.7%; Tumor weight (g, x±S.D.) [6]: 0.041 ± 0.022 g; Body weight (g, x±S.D.) End [6]: 26.0 ± 1.0 g; Body weight (g, x±S.D.) Start [6]: 23.7 ± 1.3 g; Final body weight change (%) [7]: 4.6%; Maximum body weight change (%) [7]: 4.6, d28%; Relative volume RTV (x±S.D.) [7]: 0.26±0.02; T/C (%) [7]: 5.2%; Tumor inhibition rate (%) [7]: 95.7%; Tumor weight (g, x±S.D.) [7]: 0.047 ± 0.020 g; Body weight (g, x±S.D.) End 24d [7]: 22.9 ± 0.8 g; Body weight (g, x±S.D.) Start [7]: 21.9 ± 1.3 g; IC50 [8, 12]: 0.71 nM; IC50 ([8]; βGU-free): 29 nM; IC50 [9, 12]: 4.4 nM; IC50 ([9]; βGU-free): 94 nM; IC50 [10, 12]: 1.4 nM; IC50 ([10]; βGU-free): 33 nM; IC50 [11, 12]: 4.1 nM; IC50 ([11]; βGU-free): 93 nM
3 | CC[C@H](C)[C@@H]([C@@H](CC(=O)N1CCC[C@H]1[C@H](OC)[C@@H](C)C(=O)N[C@H](C)[C@@H](O)c1ccccc1)OC)N(C)C(=O)[C@@H](NC(=O)[C@H](C(C)C)[N+](C)(CC)Cc1ccc(O[C@@H]2O[C@H](C(=O)[O-])[C@@H](O)[C@H](O)[C@H]2O)cc1OCc1cn(CCCOCC(=O)Nc2ccc(-c3ccc(/N=N/c4ccc5c(S(=O)(=O)[O-])cc(S(=O)(=O)[O-])c(N)c5c4O)c(C)c3)cc2C)nn1)C(C)C.[Na+].[Na+] (stereo partly shown) [Example compound 11] | 1.1 nM | 55 nM | 1.7 nM | 77 nM | 0.61 nM | 21 nM | 1.7 nM | 64 nM | 5.7% | 5.7, d21% | 0.19±0.23 | 1.7% | 99.3% | 0.011 ± 0.013 g | 25.7 ± 0.8 g | 24.4 ± 0.9 g | 6.7% | 6.7, d21% | 0.74±0.51 | 5.2% | Tumor inhibition rate (%) [6]: 96.6%; Tumor weight (g, x±S.D.) [6]: 0.061 ± 0.049 g; Body weight (g, x±S.D.) End [6]: 27.0 ± 2.2 g; Body weight (g, x±S.D.) Start [6]: 25.3 ± 1.6 g; IC50 [8, 12]: 0.4 nM; IC50 ([8]; βGU-free): 15 nM; IC50 [9, 12]: 2.2 nM; IC50 ([9]; βGU-free): 63 nM; IC50 [10, 12]: 1.6 nM; IC50 ([10]; βGU-free): 45 nM; IC50 [11, 12]: 3 nM; IC50 ([11]; βGU-free): 66 nM
